Literature values as cited in patent US20230380414A1, “SYSTEMS, DEVICES AND METHODS FOR DELIVERING AEROSOLIZED FLUOROCARBONS” (BOUNDLESS SCIENCE, LLC, priority 2020, published 2023).
Like-named read-outs stand apart in the source and are kept apart here.

Assays:
[1] = cited from earlier work
[2] = cited from earlier work; for Den: Table 1; for Specific Gravity: partial list of fluorinated and perfluorinated liquids
[3] = Table 1; cited from earlier work
[4] = cited from earlier work; for Spec. Ht Liq C: liquid
[5] = cited from earlier work; for Enthalpy of Vap. H: Table 1; for enthalpies of vaporization: running text
[6] = in water; cited from earlier work
[7] = Table 1; cited from earlier work; remark: listed apart in the source
[8] = @ 20° C.; cited from earlier work
[9] = partial list of fluorinated and perfluorinated liquids
[10] = Other perfluorinated liquids and their boiling points
[11] = commercial hydrofluoroalkanes, unit not given

OCC(F)(F)OC(F)(F)C(F)(F)OC(F)(F)C(F)(F)OC(F)(F)C(F)(F)C(F)(F)C(F)(F)F [1H,1H-Perfluoro-3,6,9-trioxatridecan-1-ol]
Boiling point [1, 9]: 175-176 °C

OCC(F)(F)OC(F)(F)C(F)(F)OC(F)(F)C(F)(F)C(F)(F)C(F)(F)F [1H,1H-Perfluoro-3,6-dioxadecan-1-ol]
Boiling point [1, 9]: 150 °C

FC(F)C(F)(F)C(F)(F)C(F)(F)C(F)(F)C(F)F [1H,6H-Perfluorohexane, Dodecafluorohexane]
Boiling point [1, 9]: 93 °C

FC(F)C(F)(F)C(F)(F)C(F)(F)C(F)(F)C(F)(F)C(F)(F)C(F)F [1H,8H-Perfluorooctane, Hexadecafluorooctane]
Boiling point [1, 9]: 134 °C

OCC(F)(F)C(F)(F)C(F)(F)C(F)(F)F [1H, 1H-Perfluoro-1-pentanol, 1H, 1H-Nonafluoro-1-pentanol]
Boiling point [1, 9]: 110-111 °C

FC(F)C(F)(F)C(F)(F)C(F)(F)C(F)(F)C(F)(F)C(F)(F)F [1H-Perfluoroheptane, Pentadecafluoroheptane]
Boiling point [1, 9]: 97 °C

FC(F)C(F)(F)C(F)(F)C(F)(F)C(F)(F)C(F)(F)F [1H-Perfluorohexane, Tridecafluorohexane]
Boiling point [1, 9]: 70 °C

FC(F)C(F)(F)C(F)(F)C(F)(F)C(F)(F)C(F)(F)C(F)(F)C(F)(F)C(F)(F)F [1H-Perfluorononane, Nonadecafluorononane]
Boiling point [1, 9]: 138 °C

FC(F)C(F)(F)C(F)(F)C(F)(F)C(F)(F)C(F)(F)C(F)(F)C(F)(F)F [1H-Perfluorooctane, Heptadecafluorooctane]
Boiling point [1, 9]: 117 °C

FC(F)C(F)(F)C(F)(F)C(F)(F)C(F)(F)F [1H-Perfluoropentane, Undecafluoropentane]
Boiling point [1, 9]: 42 °C

FC(F)C(F)(F)C(F)(F)C(F)F [1H.4H-Perfluorobutane, Octafluorobutane]
Boiling point [1, 9]: 45 °C

OCC(F)(F)F [2,2,2-trifluoroethanol]
Boiling point [1, 10]: 78 °C

FC(F)(F)C(F)(F)C(F)(F)C(F)(F)C(F)(F)C(F)(F)F [C6F14]
Den [2]: 1.69 g/mL
Viscosity [3]: 0.979 cPs
Spec Ht gas C [4]: 0.78 KJ/Kg/C
Spec. Ht Liq C [4]: 0.71 KJ/Kg/C
Enthalpy of Vap. H [5]: 93 kJ/kg
Boiling point ([1]; Table 1): 69 °C

FC(C(F)(F)F)C(F)(F)F [HFA227ea ™]
Boiling point [1, 11]: −17

FCC(F)(F)F [HFA 134a ™]
Boiling point [1, 11]: −26

OCC(F)(F)C(F)(C(F)(F)F)C(F)(F)C(F)(F)C(F)(F)C(F)(C(F)(F)F)C(F)(F)F (stereo not drawn) [Perfluoro-3,7-dimethyloctan-1-ol, 3,7-Bis(trifluoromethyl)tridecafluorooctanol]
Solubility [6]: Insoluble in
Boiling point ([1]; 20 mmHg): 95° C./20

FC(F)(F)C(F)(C(F)(F)F)C(F)(C(F)(F)F)C(F)(F)F [Perfluoro-(2,3-Dimethylbutane), 1,1,1,2,3,4,4,4-Octafluoro-2,3-bis(trifluoromethyl)butane]
Specific Gravity [2]: 1.7729

FC(F)(F)C(F)(F)C(F)(F)C(F)(F)F [Perfluorobutane]
Den [2]: 1.63 g/mL
Viscosity [3]: 0.012 cPs
Spec Ht gas C [4]: 0.69 KJ/Kg/C
Spec. Ht Liq C [4]: 0.53 KJ/Kg/C
Enthalpy of Vap. H [5]: 88 kJ/kg
enthalpies of vaporization [5]: 88 kJ/kg
Boiling point [1, 10]: −1.7 °C
Boiling point ([1]; Table 1): −1.8 °C
Boiling point ([1]; Table 2): −1.7 °C
Boiling point ([1]; Table 4): −1.7 °C
Boiling point [1]: −1.7 C
Boiling point ([1]; listed as perfiiuorobutane): −1.7 °C

FC1(F)C(F)(F)C(F)(F)C2(F)C(F)(F)C(F)(F)C(F)(F)C(F)(F)C2(F)C1(F)F (stereo not drawn) [Perfluorodecalin, Octadecafluorodecalin]
Den [2]: 1.92 g/mL
Viscosity [3]: 5.100 cPs
Spec. Ht Liq C [4]: 1.05 KJ/Kg/C
Enthalpy of Vap. H [5]: 85 kJ/kg
O2 Solubility [7]: 49 ml/100 ml
Vapor Pressure [8]: 6 torr @ 20 °C

FC(F)(F)C(F)(F)C(F)(F)C(F)(F)C(F)(F)C(F)(F)F [Perfluorohexane]
Boiling point [1, 10]: 56.0 °C
Boiling point ([1]; Table 2): 56.0 °C
Boiling point ([1]; Table 4): 56.0 °C

FC(F)(F)C(F)(F)C(F)(F)C(F)(F)C(F)(F)C(F)(F)C(F)(F)C(F)(F)C(F)(F)F [Perfluorononane, Eicosafluorononane]
Specific Gravity [2]: 1.799

FC(F)(F)C(F)(F)C(F)(F)C(F)(F)C(F)(F)C(F)(F)C(F)(F)C(F)(F)F [Perfluorooctane, Octadecafluorooctane]
Den [2]: 1.77 g/mL
Specific Gravity [2]: 1.73
Viscosity [3]: 1.800 cPs
Enthalpy of Vap. H [5]: 76 kJ/kg
Boiling point ([1]; Table 1): 377 °C
Boiling point ([1]; Table 2): 103.0 °C
Boiling point ([1]; Table 4): 103.0 °C
Boiling point [1, 9]: 103-104 °C

FC(F)(F)C(F)(F)C(F)(F)C(F)(F)C(F)(F)C(F)(F)C(F)(F)C(F)(F)Br [Perfluorooctylbromide]
Boiling point [1, 10]: 142 °C
Boiling point ([1]; Table 2): 142 °C
Boiling point ([1]; Table 4): 142 °C

FC1(F)C(F)(F)C(F)(F)C2(F)C(F)(C1(F)F)C(F)(F)C(F)(F)C1(F)C(F)(F)C(F)(F)C(F)(F)C(F)(F)C12F (stereo not drawn) [Perfluoroperhydrophenanthrene]
Boiling point [1, 10]: 215 °C
Boiling point ([1]; Table 2): 215 °C
Boiling point ([1]; Table 4): 215 °C

COC(F)(F)C(F)(F)C(F)(F)C(F)(F)F [methyl perfluorobutylether]
Boiling point [1, 10]: 60 °C

COC(F)(F)C(F)(F)C(F)(F)F [methyl perfluoropropyl ether]
Boiling point [1, 10]: 34 °C

FC(F)(F)C(F)(F)C(F)(F)C(F)(F)N(C(F)(F)C(F)(F)C(F)(F)C(F)(F)F)C(F)(F)C(F)(F)C(F)(F)C(F)(F)F [perfluoro tributyl amine]
Boiling point [1, 10]: 178 °C
Boiling point ([1]; Table 2): 178 °C
Boiling point ([1]; Table 4): 178 °C

FC(F)(F)C(F)(F)C(F)(F)C(F)(F)C(F)(F)C(F)(F)C(F)(F)F [perfluoroheptane, Hexadecafluoroheptane]
Den [2]: 1.75 g/mL
Specific Gravity [2]: 1.72
Viscosity [3]: 0.900 cPs
Spec Ht gas C [4]: 0.82 KJ/Kg/C
Spec. Ht Liq C [4]: 0.64 KJ/Kg/C
Enthalpy of Vap. H [5]: 90 kJ/kg
Boiling point [1, 10]: 56.0 °C
Boiling point ([1]; Table 1): 82 °C
Boiling point ([1]; Table 2): 56.0 °C
Boiling point ([1]; Table 4): 56.0 °C
Boiling point [1, 9]: 80-82 °C

FC(F)(F)C(F)(F)C(F)(F)C(F)(F)C(F)(F)F [perfluoropentane]
Den [2]: 1.59 g/mL
Viscosity [3]: 0.460 cPs
Specific Heat ([4]; chilled aerosolized liquid): 1.05 KJ/Kg*C
Spec Ht gas C [4]: 1.02 KJ/Kg/C
Spec. Ht Liq C [4]: 1.05 KJ/Kg/C
Enthalpy of Vap. H [5]: 94 kJ/kg
enthalpies of vaporization [5]: 94 kJ/kg
Boiling point [1, 10]: 28.0 °C
Boiling point ([1]; Table 1): 30 °C
Boiling point ([1]; Table 2): 28.0 °C
Boiling point ([1]; Table 4): 28.0 °C
Boiling point ([1]; running text): 30 C
O2 Solubility [7]: 54 ml/100 ml

FC(F)(F)C(F)(F)C(F)(F)F [perfluoropropane]
Boiling point [1, 10]: −36.7 °C
Boiling point ([1]; Table 2): −36.7 °C
Boiling point ([1]; Table 4): −36.7 °C

FC(F)(F)C(F)(F)C(F)(F)C(F)(F)C(F)(F)N(C(F)(F)C(F)(F)C(F)(F)C(F)(F)C(F)(F)F)C(F)(F)C(F)(F)C(F)(F)C(F)(F)C(F)(F)F [perfluorotripentyl amine]
Boiling point [1, 10]: 215 °C
Boiling point ([1]; Table 2): 215 °C
Boiling point ([1]; Table 4): 215 °C

Perfluoro(triethylene glycol dimethyl ether) [Perfluorotetraglyme]
Boiling point [1, 9]: 138 °C

Perfluoro(triethylene glycol dimethyl ether) [Perfluorotriglyme]
Boiling point [1, 9]: 106 °C
